Experimental data published in patent US20080161232A1, “C5a Receptor Antagonist” (JERINI AG, priority 2005, published 2008).
Starred links: 1 amine or outer side, 2 acyl side, 3 side chain; linkers in the order of their positions; H or OH if unused. Positions of bridges follow the written chain, without caps; N, C: chain ends. Non-standard residues stand in square brackets, D forms with d. Residues, ends and D or L forms follow the SMILES beside them. *: point of attachment. Phe(4-guanidino) = N=C(N)Nc1ccc(C[C@H](N)C(=O)O)cc1; X6 = O=C([C@H](C[S+]([O-])Cc1cccnc1)N[*:1])[*:2]; Phe(3,4-Cl2) = N[C@@H](Cc1ccc(Cl)c(Cl)c1)C(=O)O; Phe(3-Cl) = N[C@@H](Cc1cccc(Cl)c1)C(=O)O; Phe(2-Cl) = N[C@@H](Cc1ccccc1Cl)C(=O)O; Phe(4-F) = N[C@@H](Cc1ccc(F)cc1)C(=O)O; Bta = N[C@@H](Cc1csc2ccccc12)C(=O)O; Hyp = O=C(O)[C@@H]1C[C@@H](O)CN1; PhLac = O=C(O)[C@@H](O)Cc1ccccc1; d(hLeu) = CC(C)CC[C@@H](N)C(=O)O; hCit = NC(=O)NCCCC[C@H](N)C(=O)O; Cit = NC(=O)NCCC[C@H](N)C(=O)O; dCha = N[C@H](CC1CCCCC1)C(=O)O; NMeS = CN[C@@H](CO)C(=O)O; Nle = CCCC[C@H](N)C(=O)O; Orn = NCCC[C@H](N)C(=O)O; X16 = c1ccc(C*)nc1; X18 = c1cc(C*)ccn1; X22 = c1cncc(C*)c1

target: T1, human C5aR(CD88) (Homo sapiens, UniProt P21730); test: Determination of the IC50 value in an enzyme release assay (functional assay, antagonistic activity); type: cell-based; settings: antagonistic activity; IC50 group in enzyme release assay, RBL cells expressing human C5aR(CD88); read-out: activity (group)
T1 construct: expressed in transfected cells; host or cells: rat basophilic leukemia cells (RBL)
T1 sequence (P21730 1-350): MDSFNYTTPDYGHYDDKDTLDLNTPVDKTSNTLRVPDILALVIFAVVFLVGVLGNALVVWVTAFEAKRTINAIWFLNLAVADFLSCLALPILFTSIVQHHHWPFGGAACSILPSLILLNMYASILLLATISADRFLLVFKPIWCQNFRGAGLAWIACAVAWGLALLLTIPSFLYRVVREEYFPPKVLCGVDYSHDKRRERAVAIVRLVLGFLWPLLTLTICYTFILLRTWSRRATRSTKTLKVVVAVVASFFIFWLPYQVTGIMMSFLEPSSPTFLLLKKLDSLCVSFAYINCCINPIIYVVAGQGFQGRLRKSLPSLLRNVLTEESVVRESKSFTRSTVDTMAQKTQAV

| Compound | IC50 |
| --- | --- |
| CCCC[C@@H]1NC(=O)[C@H](Cc2c[nH]c3ccccc23)NC(=O)[C@@H](CC2CCCCC2)NC(=O)[C@H](CO)N(C)C(=O)[C@@H](NC(=O)[C@@H](N)Cc2ccccc2)CCCNC1=O [Compound 372, H-Phe-[Orn-NMS-cha-Trp-Nle]] (H-F[Orn][NMeS][dCha]W[Nle]; lactam 2-C) | 50 to 200 nM |
| CC(C)CC[C@H]1NC(=O)[C@H](CO)N(C)C(=O)[C@@H](NC(=O)[C@@H](N)Cc2ccccc2)CCCNC(=O)[C@H](Cc2ccccc2)NC(=O)[C@H](Cc2ccc(F)cc2)NC1=O [Compound 373, H-Phe-[Orn-NMS-hle-Pff-Phe]] (H-F[Orn][NMeS][d(hLeu)][Phe(4-F)]F; lactam 2-C) | 50 to 200 nM |
| CCCC[C@@H]1NC(=O)[C@H](Cc2ccc(F)cc2)NC(=O)[C@@H](CC2CCCCC2)NC(=O)[C@@H]2CCCN2C(=O)[C@@H](NC(=O)[C@@H](N)Cc2ccccc2)CCCNC1=O [Compound 374, H-Phe-[Orn-Pro-cha-Pff-Nle]] (H-F[Orn]P[dCha][Phe(4-F)][Nle]; lactam 2-C) | 50 to 200 nM |
| N[C@@H](Cc1ccccc1)C(=O)N[C@H]1CCCNC(=O)[C@H](Cc2ccccc2)NC(=O)[C@H](Cc2ccc(F)cc2)NC(=O)[C@@H](CC2CCCCC2)NC(=O)[C@@H]2CCCN2C1=O [Compound 375, H-Phe-[Orn-Pro-cha-Pff-Phe]] (H-F[Orn]P[dCha][Phe(4-F)]F; lactam 2-C) | 50 to 200 nM |
| CCCC[C@@H]1NC(=O)[C@H](Cc2c[nH]c3ccccc23)NC(=O)[C@@H](CC2CCCCC2)NC(=O)[C@@H]2CCCN2C(=O)[C@@H](NC(=O)[C@@H](N)Cc2ccccc2)CCCNC1=O [Compound 376, H-Phe-[Orn-Pro-cha-Trp-Nle]] (H-F[Orn]P[dCha]W[Nle]; lactam 2-C) | 50 to 200 nM |
| CC(C)CC[C@H]1NC(=O)[C@@H]2CCCN2C(=O)[C@@H](NC(=O)[C@@H](N)Cc2ccccc2)CCCNC(=O)[C@H](Cc2ccccc2)NC(=O)[C@H](Cc2cccc(Cl)c2)NC1=O [Compound 377, H-Phe-[Orn-Pro-hle-Mcf-Phe]] (H-F[Orn]P[d(hLeu)][Phe(3-Cl)]F; lactam 2-C) | 20 to 50 nM |
| CC(C)CC[C@H]1NC(=O)[C@@H]2CCCN2C(=O)[C@@H](NC(=O)[C@@H](N)Cc2ccccc2)CCCNC(=O)[C@H](Cc2ccccc2)NC(=O)[C@H](Cc2ccccc2Cl)NC1=O [Compound 378, H-Phe-[Orn-Pro-hle-Ocf-Phe]] (H-F[Orn]P[d(hLeu)][Phe(2-Cl)]F; lactam 2-C) | 50 to 200 nM |
| CCCC[C@@H]1NC(=O)[C@H](Cc2ccc(F)cc2)NC(=O)[C@@H](CCC(C)C)NC(=O)[C@@H]2CCCN2C(=O)[C@@H](NC(=O)[C@@H](N)Cc2ccccc2)CCCNC1=O [Compound 379, H-Phe-[Orn-Pro-hle-Pff-Nle]] (H-F[Orn]P[d(hLeu)][Phe(4-F)][Nle]; lactam 2-C) | 50 to 200 nM |
| CC(C)CC[C@H]1NC(=O)[C@@H]2CCCN2C(=O)[C@@H](NC(=O)[C@@H](N)Cc2ccccc2)CCCNC(=O)[C@H](Cc2ccccc2)NC(=O)[C@H](Cc2ccc(F)cc2)NC1=O [Compound 380, H-Phe-[Orn-Pro-hle-Pff-Phe]] (H-F[Orn]P[d(hLeu)][Phe(4-F)]F; lactam 2-C) | 20 to 50 nM |
| CCCC[C@@H]1NC(=O)[C@H](Cc2c[nH]c3ccccc23)NC(=O)[C@@H](CCC(C)C)NC(=O)[C@@H]2CCCN2C(=O)[C@@H](NC(=O)[C@@H](N)Cc2ccccc2)CCCNC1=O [Compound 381, H-Phe-[Orn-Pro-hle-Trp-Nle]] (H-F[Orn]P[d(hLeu)]W[Nle]; lactam 2-C) | 20 to 50 nM |
| CCCC[C@@H]1NC(=O)[C@H](Cc2c[nH]c3ccccc23)NC(=O)[C@@H](CC2CCCCC2)NC(=O)[C@H](CO)NC(=O)[C@@H](NC(=O)[C@@H](N)Cc2ccccc2)CCCNC1=O [Compound 382, H-Phe-[Orn-Ser-cha-Trp-Nle]] (H-F[Orn]S[dCha]W[Nle]; lactam 2-C) | 20 to 50 nM |
| N[C@@H](Cc1ccccc1)C(=O)N[C@H]1CCCNC(=O)[C@H](Cc2ccccc2)NC(=O)[C@H](Cc2c[nH]c3ccccc23)NC(=O)[C@@H](CC2CCCCC2)NC(=O)[C@H](CO)NC1=O [Compound 383, H-Phe-[Orn-Ser-cha-Trp-Phe]] (H-F[Orn]S[dCha]WF; lactam 2-C) | 20 to 50 nM |
| CCCC[C@@H]1NC(=O)[C@H](Cc2ccc(Cl)c(Cl)c2)NC(=O)[C@@H](CCC(C)C)NC(=O)[C@H](CO)NC(=O)[C@@H](NC(=O)[C@@H](N)Cc2ccccc2)CCCNC1=O [Compound 384, H-Phe-[Orn-Ser-hle-Eaa-Nle]] (H-F[Orn]S[d(hLeu)][Phe(3,4-Cl2)][Nle]; lactam 2-C) | 50 to 200 nM |
| CC(C)CC[C@H]1NC(=O)[C@H](CO)NC(=O)[C@@H](NC(=O)[C@@H](N)Cc2ccccc2)CCCNC(=O)[C@H](CC(C)C)NC(=O)[C@H](Cc2cccc(Cl)c2)NC1=O [Compound 385, H-Phe-[Orn-Ser-hle-Mcf-Leu]] (H-F[Orn]S[d(hLeu)][Phe(3-Cl)]L; lactam 2-C) | 50 to 200 nM |
| CCCC[C@@H]1NC(=O)[C@H](Cc2ccccc2Cl)NC(=O)[C@@H](CCC(C)C)NC(=O)[C@H](CO)NC(=O)[C@@H](NC(=O)[C@@H](N)Cc2ccccc2)CCCNC1=O [Compound 386, H-Phe-[Orn-Ser-hle-Ocf-Nle]] (H-F[Orn]S[d(hLeu)][Phe(2-Cl)][Nle]; lactam 2-C) | 50 to 200 nM |
| CC(C)CC[C@H]1NC(=O)[C@H](CO)NC(=O)[C@@H](NC(=O)[C@@H](N)Cc2ccccc2)CCCNC(=O)[C@H](CC(C)C)NC(=O)[C@H](Cc2ccc(F)cc2)NC1=O [Compound 387, H-Phe-[Orn-Ser-hle-Pff-Leu]] (H-F[Orn]S[d(hLeu)][Phe(4-F)]L; lactam 2-C) | 50 to 200 nM |
| CCCC[C@@H]1NC(=O)[C@H](Cc2ccc(F)cc2)NC(=O)[C@@H](CCC(C)C)NC(=O)[C@H](CO)NC(=O)[C@@H](NC(=O)[C@@H](N)Cc2ccccc2)CCCNC1=O [Compound 388, H-Phe-[Orn-Ser-hle-Pff-Nle]] (H-F[Orn]S[d(hLeu)][Phe(4-F)][Nle]; lactam 2-C) | 20 to 50 nM |
| CC(C)CC[C@H]1NC(=O)[C@H](CO)NC(=O)[C@@H](NC(=O)[C@@H](N)Cc2ccccc2)CCCNC(=O)[C@H](Cc2ccccc2)NC(=O)[C@H](Cc2ccc(F)cc2)NC1=O [Compound 389, H-Phe-[Orn-Ser-hle-Pff-Phe]] (H-F[Orn]S[d(hLeu)][Phe(4-F)]F; lactam 2-C) | 50 to 200 nM |
| CCCC[C@@H]1NC(=O)[C@H](Cc2c[nH]c3ccccc23)NC(=O)[C@@H](CCC(C)C)NC(=O)[C@H](CO)NC(=O)[C@@H](NC(=O)[C@@H](N)Cc2ccccc2)CCCNC1=O [Compound 390, H-Phe-[Orn-Ser-hle-Trp-Nle]] (H-F[Orn]S[d(hLeu)]W[Nle]; lactam 2-C) | 20 to 50 nM |
| CC(C)CC[C@@H](NC(=O)[C@@H]1CCCN1C(=O)[C@H](CCCNC(N)=O)NC(=O)[C@@H](N)Cc1ccccc1)C(=O)N[C@@H](Cc1csc2ccccc12)C(=O)N[C@@H](Cc1ccccc1)C(N)=O [Compound 391, H-Phe-Cit-Pro-hle-Bta-Phe-NH2] (H-F[Cit]P[d(hLeu)][Bta]F-NH2) | 50 to 200 nM |
| CCCC[C@@H]1NC(=O)[C@H](Cc2c[nH]c3ccccc23)NC(=O)[C@@H](CCC(C)C)NC(=O)[C@@H]2C[C@@H](O)CN2C(=O)[C@@H](NC(=O)[C@@H](O)Cc2ccccc2)CCCNC1=O [Compound 392, Ohf-[Orn-Hyp-hle-Trp-Nle]] (H-[PhLac][Orn][Hyp][d(hLeu)]W[Nle]; lactam 2-C) | 50 to 200 nM |
| CC(=O)N[C@@H](Cc1ccccc1)C(=O)N[C@H]1CCCNC(=O)[C@H](CCCCNC(=N)N)NC(=O)[C@H](Cc2c[nH]c3ccccc23)NC(=O)[C@@H](CC2CCCCC2)NC(=O)[C@@H]2CCCN2C1=O [compound 8] | 200 to 2000 nM |
| CC(=O)N[C@@H](Cc1ccccc1)C(=O)N[C@H]1CCCNC(=O)[C@H](Cc2ccc(NC(=N)N)cc2)NC(=O)[C@H](Cc2c[nH]c3ccccc23)NC(=O)[C@@H](CC2CCCCC2)NC(=O)[C@@H]2CCCN2C1=O [compound 9] (Ac-F[Orn]P[dCha]W[Phe(4-guanidino)]; lactam 2-C) | 200 to 2000 nM |
| CC(=O)N[C@@H](Cc1ccccc1)C(=O)N[C@H]1CCCNC(=O)[C@H](CCC/N=C(/N)N[N+](=O)[O-])NC(=O)[C@H](Cc2c[nH]c3ccccc23)NC(=O)[C@@H](CC2CCCCC2)NC(=O)[C@@H]2CCCN2C1=O [compound 11] | 200 to 2000 nM |
| CC(=O)N[C@@H](Cc1ccccc1)C(=O)N[C@H]1CCCNC(=O)[C@H](CCCCNC(N)=O)NC(=O)[C@H](Cc2c[nH]c3ccccc23)NC(=O)[C@@H](CC2CCCCC2)NC(=O)[C@@H]2CCCN2C1=O [compound 13] (Ac-F[Orn]P[dCha]W[hCit]; lactam 2-C) | 200 to 2000 nM |
| CC(=O)N[C@@H](Cc1ccccc1)C(=O)N[C@H]1CCCNC(=O)[C@H](CSCc2ccncc2)NC(=O)[C@H](Cc2c[nH]c3ccccc23)NC(=O)[C@@H](CC2CCCCC2)NC(=O)[C@@H]2CCCN2C1=O [compound 15] (Ac-F[Orn]P[dCha]WC(X18); lactam 2-C) | 200 to 2000 nM |
| CC(=O)N[C@@H](Cc1ccccc1)C(=O)N[C@H]1CCCNC(=O)[C@H](C[S+]([O-])Cc2cccnc2)NC(=O)[C@H](Cc2c[nH]c3ccccc23)NC(=O)[C@@H](CC2CCCCC2)NC(=O)[C@@H]2CCCN2C1=O (some centres unmarked) [compound 16] (Ac-F[Orn]P[dCha]W[X6]; lactam 2-C) | 200 to 2000 nM |
| CC(=O)N[C@@H](Cc1ccccc1)C(=O)N[C@H]1CCCNC(=O)[C@H](CSCc2cccnc2)NC(=O)[C@H](Cc2c[nH]c3ccccc23)NC(=O)[C@@H](CC2CCCCC2)NC(=O)[C@@H]2CCCN2C1=O [compound 17] (Ac-F[Orn]P[dCha]WC(X22); lactam 2-C) | 200 to 2000 nM |
| CC(=O)N[C@@H](Cc1ccccc1)C(=O)N[C@H]1CCCNC(=O)[C@H](CSCc2ccccn2)NC(=O)[C@H](Cc2c[nH]c3ccccc23)NC(=O)[C@@H](CC2CCCCC2)NC(=O)[C@@H]2CCCN2C1=O [compound 18] (Ac-F[Orn]P[dCha]WC(X16); lactam 2-C) | 200 to 2000 nM |
